Key:
[1] = tested on: SUCR1 mutants (variant named in the endpoint); experiment: Calcium mobilization assay, SUCR1 mutants in HEK293 stably expressing Gα16; type: cell-based, human; conditions: in words
Protocol: (§1) The full-length human SUCR1 and mutations were fused after the HA signal peptide and Flag tag. The constructs were cloned into pcDNA6.0 vector for HEK293 system.
(§2) HEK293 cells were obtained from ATCC (Manassas, VA, USA) and cultured in DMEM supplemented with 10% (v/v) FBS, 100 mg/L penicillin, and 100 mg/L streptomycin in 5% CO2 at 37 °C. For transient transfection, ~2.5 × 10^6 cells were mixed with 2 µg plasmids in 200 µL transfection buffer, and electroporation was carried out with a Scientz-2C electroporation apparatus (Scientz Biotech, Ningbo, China). The experiments were carried out 24 h after transfection. HEK293 cell lines stably expressing Gα16 were constructed by our laboratory.
(§3) For OXGR1, plasmids were transfected into HEK293 (other receptors were transfected into HEK293 stably expressing Gα16) and seeded at a density of 4 × 10^4 per well into 96-well culture plates and incubated for 24 h at 37 °C in 5% CO2. The next day, Cells were incubated with 2 μM/L Fluo-4 AM in HBSS supplemented with 5.6 mM/L D-glucose and 250 μM/L sulfinpyrazone at 37 °C for 45 min. […] Three independent measurements were repeated, i.e., three different transfections, with three technical replicates performed for each experiment. EC50 and Emax values for each curve were calculated by Prism 8.0 software (GraphPad Software).

HCAR1 = target: T1, HCAR1 (Homo sapiens, UniProt Q9BXC0); experiment: Calcium mobilization assay, HCAR1 in HEK293 stably expressing Gα16; type: cell-based; conditions: in words; related receptor
T1 construct: expressed in transfected cells; host or cells: HEK293 stably expressing Gα16
Protocol: as §2, §3

HCAR2 = target: T2, HCAR2 (Homo sapiens, UniProt Q8TDS4); experiment: Calcium mobilization assay, HCAR2 in HEK293 stably expressing Gα16; type: cell-based; conditions: in words; related receptor
T2 construct: expressed in transfected cells; host or cells: HEK293 stably expressing Gα16
Protocol: as §2, §3

[2] = tested on: OXGR1 mutants (variant named in the endpoint); experiment: Calcium mobilization assay, OXGR1 mutants in HEK293; conditions: for Emax: each ligand normalized to WT (100%); for increase in potency by F113W mutation: OXGR1 F113W versus WT; for activation of OXGR1 L299P: in words;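 for all read-outs here: human OXGR1 variants transiently expressed in HEK293 cells, with intracellular calcium read out by Fluo-4 AM fluorescence, measured 24 h after transfection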
Protocol: as §1, §2, §3

[3] = target: T3, SUCR1 mutants (variant named in the endpoint) (Homo sapiens, UniProt Q9BXA5, F285A/L102F/Y248F); experiment: Calcium mobilization assay, SUCR1 mutants in HEK293 stably expressing Gα16; type: cell-based; conditions: SUCR1 L102F-F285A-Y248F
T3 construct: The full-length human SUCR1 and mutations were fused after the HA signal peptide and Flag tag; HA signal peptide (N); Flag (N); expressed in transfected cells; host or cells: HEK293 stably expressing Gα16 (pcDNA6.0, transient electroporation)
T3 sequence (Q9BXA5 1-334 L102F/Y248F/F285A): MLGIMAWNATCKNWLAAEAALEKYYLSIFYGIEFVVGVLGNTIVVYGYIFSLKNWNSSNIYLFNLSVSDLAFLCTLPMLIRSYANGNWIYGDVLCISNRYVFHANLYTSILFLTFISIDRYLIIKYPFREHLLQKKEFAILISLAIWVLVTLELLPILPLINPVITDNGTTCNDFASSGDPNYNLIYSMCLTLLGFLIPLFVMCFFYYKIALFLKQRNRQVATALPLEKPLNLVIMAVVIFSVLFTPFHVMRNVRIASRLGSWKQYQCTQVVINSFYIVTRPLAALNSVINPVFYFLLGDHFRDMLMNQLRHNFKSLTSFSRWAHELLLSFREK
Protocol: as §1, §2, §3

T2 sequence (Q8TDS4 whole entry): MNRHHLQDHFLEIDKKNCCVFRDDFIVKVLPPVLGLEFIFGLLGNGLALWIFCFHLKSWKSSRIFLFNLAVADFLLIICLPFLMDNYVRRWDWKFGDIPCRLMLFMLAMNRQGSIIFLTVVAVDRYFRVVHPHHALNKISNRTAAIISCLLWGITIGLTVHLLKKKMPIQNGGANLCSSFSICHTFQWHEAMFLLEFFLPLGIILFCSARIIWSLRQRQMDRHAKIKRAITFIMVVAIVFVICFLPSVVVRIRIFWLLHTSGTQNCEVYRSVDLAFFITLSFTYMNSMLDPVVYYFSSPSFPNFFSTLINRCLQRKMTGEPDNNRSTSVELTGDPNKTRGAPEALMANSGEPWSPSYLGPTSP
T1 sequence (Q9BXC0 whole entry, species assumed): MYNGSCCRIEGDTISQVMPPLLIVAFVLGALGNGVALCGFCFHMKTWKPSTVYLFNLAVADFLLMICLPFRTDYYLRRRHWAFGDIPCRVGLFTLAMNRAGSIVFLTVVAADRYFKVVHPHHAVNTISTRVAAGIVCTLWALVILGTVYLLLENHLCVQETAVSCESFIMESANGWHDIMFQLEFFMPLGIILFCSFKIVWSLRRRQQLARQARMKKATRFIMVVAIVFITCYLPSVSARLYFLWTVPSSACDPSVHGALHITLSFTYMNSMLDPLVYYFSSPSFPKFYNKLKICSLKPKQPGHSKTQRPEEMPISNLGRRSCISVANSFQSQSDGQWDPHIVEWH

C=C(CC(=O)O)C(=O)O [ITA, itaconate]
ITA activation of SUCR1-L102F, SUCR1-L102F-F285A, SUCR1-L102F-F175L [1]: further enhanced ITA activation in both potency and efficiency
activation of HCAR1 (HCAR1): no detectable activation
activation of HCAR2 (HCAR2): no detectable activation
EC50 ([2]; OXGR1 D185A): > 1000 µM
Emax ([2]; OXGR1 D185A): 4.9± 2 WT%
EC50 ([2]; OXGR1 E97A): > 1000 µM
Emax ([2]; OXGR1 E97A): 47± 3 WT%
EC50 ([2]; OXGR1 F113A): > 1000 µM
Emax ([2]; OXGR1 F113A): 26± 3 WT%
EC50 ([2]; OXGR1 F113W): 21.3 ± 2 µM
increase in potency by F113W mutation [2]: ~ 2 fold
Emax ([2]; OXGR1 F113W): 86± 2 WT%
EC50 ([2]; OXGR1 F130D): > 1000 µM
Emax ([2]; OXGR1 F130D): -5.6± 4 WT%
EC50 ([2]; OXGR1 F130E): > 1000 µM
Emax ([2]; OXGR1 F130E): -5.3± 3 WT%
EC50 ([2]; OXGR1 F250A): > 1000 µM
Emax ([2]; OXGR1 F250A): 2.2± 3 WT%
EC50 ([2]; OXGR1 F254A): > 1000 µM
Emax ([2]; OXGR1 F254A): 0.87± 3 WT%
EC50 ([2]; OXGR1 F257A): 52 ± 10 µM
Emax ([2]; OXGR1 F257A): 54± 2 WT%
EC50 ([2]; OXGR1 F257Y): 130 ± 40 µM
Emax ([2]; OXGR1 F257Y): 120± 10 WT%
EC50 ([2]; OXGR1 H114A): > 1000 µM
Emax ([2]; OXGR1 H114A): -4.6± 2 WT%
EC50 ([2]; OXGR1 H114L): > 1000 µM
Emax ([2]; OXGR1 H114L): -5.6± 5 WT%
EC50 ([2]; OXGR1 H258A): > 1000 µM
Emax ([2]; OXGR1 H258A): 3.0± 6 WT%
EC50 ([2]; OXGR1 H281A): 670 ± 60 µM
Emax ([2]; OXGR1 H281A): 74±3 WT%
EC50 ([2]; OXGR1 I121A): > 1000 µM
Emax ([2]; OXGR1 I121A): 15± 5 WT%
EC50 ([2]; OXGR1 I172A): > 1000 µM
Emax ([2]; OXGR1 I172A): -0.93± 2 WT%
EC50 ([2]; OXGR1 I285A): > 1000 µM
Emax ([2]; OXGR1 I285A): 34±5 WT%
EC50 ([2]; OXGR1 L36A): > 1000 µM
Emax ([2]; OXGR1 L36A): 6.5± 8 WT%
EC50 ([2]; OXGR1 L89A): > 1000 µM
Emax ([2]; OXGR1 L89A): -4.5± 2.0 WT%
EC50 ([2]; OXGR1 L117A): 500 ± 20 µM
Emax ([2]; OXGR1 L117A): 63± 4 WT%
EC50 ([2]; OXGR1 L124A): > 1000 µM
Emax ([2]; OXGR1 L124A): 36± 3 WT%
EC50 ([2]; OXGR1 L186A): > 1000 µM
Emax ([2]; OXGR1 L186A): -4.0± 2 WT%
EC50 ([2]; OXGR1 L186F): 180 ± 50 µM
Emax ([2]; OXGR1 L186F): 80± 9 WT%
EC50 ([2]; OXGR1 L299P): > 1000 µM
activation of OXGR1 L299P ([2]; OXGR1 L299P): abolished
EC50 ([2]; OXGR1 M168I): 510 ± 60 µM
Emax ([2]; OXGR1 M168I): 100± 8 WT%
EC50 ([2]; OXGR1 N28A): 120 ± 30 µM
Emax ([2]; OXGR1 N28A): 100± 8 WT%
EC50 ([2]; OXGR1 R110A): > 1000 µM
Emax ([2]; OXGR1 R110A): 6.5± 2 WT%
EC50 ([2]; OXGR1 R110E): > 1000 µM
Emax ([2]; OXGR1 R110E): -2.0± 3 WT%
EC50 ([2]; OXGR1 R110Q): > 1000 µM
Emax ([2]; OXGR1 R110Q): -2.8± 0.7 WT%
EC50 ([2]; OXGR1 R177A): 320 ± 90 µM
Emax ([2]; OXGR1 R177A): 110± 3 WT%
EC50 ([2]; OXGR1 R261A): > 1000 µM
Emax ([2]; OXGR1 R261A): 6.7± 2 WT%
EC50 ([2]; OXGR1 R264A): > 1000 µM
Emax ([2]; OXGR1 R264A): 24± 3 WT%
EC50 ([2]; OXGR1 R268A): > 1000 µM
Emax ([2]; OXGR1 R268A): -4.3± 4 WT%
EC50 ([2]; OXGR1 R288A): > 1000 µM
Emax ([2]; OXGR1 R288A): 11±7 WT%
EC50 ([2]; OXGR1 R288E): > 1000 µM
EC50 ([2]; OXGR1 R288Q): > 1000 µM
Emax ([2]; OXGR1 R288Q): 14±1 WT%
EC50 ([2]; OXGR1 Y40A): > 1000 µM
Emax ([2]; OXGR1 Y40A): 6.9± 9 WT%
EC50 ([2]; OXGR1 Y82A): > 1000 µM
Emax ([2]; OXGR1 Y82A): 56± 7 WT%
EC50 ([2]; OXGR1 Y93A): > 1000 µM
Emax ([2]; OXGR1 Y93A): 3.3± 2 WT%
EC50 ([2]; OXGR1 Y284A): > 1000 µM
Emax ([2]; OXGR1 Y284A): -9±2 WT%

O=C(O)CCC(=O)O [SUC, succinate]
EC50 [3]: 2200 ± 220 µM
EC50 ([2]; OXGR1 D185A): > 1000 µM
Emax ([2]; OXGR1 D185A): -4.4± 9 WT%
EC50 ([2]; OXGR1 E97A): 1580 ± 260 µM
Emax ([2]; OXGR1 E97A): 74± 6 WT%
EC50 ([2]; OXGR1 F113A): > 1000 µM
Emax ([2]; OXGR1 F113A): -0.39± 2 WT%
EC50 ([2]; OXGR1 F113W): 760 ± 210 µM
increase in potency by F113W mutation [2]: no significant change
Emax ([2]; OXGR1 F113W): 82± 5 WT%
EC50 ([2]; OXGR1 F257A): > 10000 µM
Emax ([2]; OXGR1 F257A): 29± 1 WT%
EC50 ([2]; OXGR1 F257Y): 81 ± 4 µM
Emax ([2]; OXGR1 F257Y): 76± 2 WT%
EC50 ([2]; OXGR1 H114A): 3600 ± 600 µM
Emax ([2]; OXGR1 H114A): 84± 4 WT%
EC50 ([2]; OXGR1 H114L): > 1000 µM
Emax ([2]; OXGR1 H114L): 1.9± 3 WT%
EC50 ([2]; OXGR1 H281A): 4500 ± 1300 µM
Emax ([2]; OXGR1 H281A): 87±10 WT%
EC50 ([2]; OXGR1 I172A): > 1000 µM
Emax ([2]; OXGR1 I172A): 0.013± 2 WT%
EC50 ([2]; OXGR1 L36A): > 1000 µM
Emax ([2]; OXGR1 L36A): 6.1± 0.2 WT%
EC50 ([2]; OXGR1 L89A): > 1000 µM
Emax ([2]; OXGR1 L89A): 2.8± 0.9 WT%
EC50 ([2]; OXGR1 L186A): > 1000 µM
Emax ([2]; OXGR1 L186A): -0.43± 1 WT%
EC50 ([2]; OXGR1 L186F): 770 ± 60 µM
Emax ([2]; OXGR1 L186F): 75± 5 WT%
EC50 ([2]; OXGR1 L299P): > 1000 µM
Emax ([2]; OXGR1 L299P): 10.5±3 WT%
activation of OXGR1 L299P ([2]; OXGR1 L299P): abolished
EC50 ([2]; OXGR1 M168I): 1100 ± 60 µM
Emax ([2]; OXGR1 M168I): 88± 2 WT%
EC50 ([2]; OXGR1 N28A): 300 ± 50 µM
Emax ([2]; OXGR1 N28A): 94± 0.8 WT%
EC50 ([2]; OXGR1 R110A): > 1000 µM
Emax ([2]; OXGR1 R110A): 7.0± 1 WT%
EC50 ([2]; OXGR1 R110E): > 1000 µM
Emax ([2]; OXGR1 R110E): 8.9± 5 WT%
EC50 ([2]; OXGR1 R110Q): > 1000 µM
Emax ([2]; OXGR1 R110Q): 1.7± 2 WT%
EC50 ([2]; OXGR1 R177A): 370 ± 70 µM
Emax ([2]; OXGR1 R177A): 89± 6 WT%
EC50 ([2]; OXGR1 R264A): > 10000 µM
Emax ([2]; OXGR1 R264A): 57± 5 WT%
EC50 ([2]; OXGR1 R268A): > 1000 µM
Emax ([2]; OXGR1 R268A): 6.3± 4 WT%
EC50 ([2]; OXGR1 R288A): > 1000 µM
EC50 ([2]; OXGR1 R288E): > 1000 µM
Emax ([2]; OXGR1 R288E): -16±0.6 WT%
EC50 ([2]; OXGR1 R288Q): > 1000 µM
EC50 ([2]; OXGR1 Y40A): > 1000 µM
Emax ([2]; OXGR1 Y40A): -1.5± 2 WT%
EC50 ([2]; OXGR1 Y93A): > 1000 µM
Emax ([2]; OXGR1 Y93A): 5.5± 3 WT%
EC50 ([2]; OXGR1 Y284A): > 1000 µM
Emax ([2]; OXGR1 Y284A): 4.1±2 WT%
